According to patent publication US20240041028A1, “DELIVERY SYSTEM FOR PLANT PROTECTION” (Omya International AG, priority 2021, published 2024):

System: Botrytis cinerea strain SAS 56
Experiment: Efficacy of pyrimethanil tablets against Botrytis on tomato fruits
Format: in vivo
Details: 6 days after inoculation (6 dpi); active applied one day prior to inoculation, 80 μl per hole
Excerpt: • Tablets loaded with pyrimethanil (sample V3.3, 2.1 wt.-%, prepared according to Example 4) • Hydromagnesite tablets unloaded • Fungicide Espiro SC, commercially available from Omya Agro • Pure pyrimethanil powder, commercially available from Pluorochem Ltd • Five plastic trays with lids • Screwdriver • Eppendorf Pipette […] • Tomato fruits (calibration 47-57 mm) • Inoculum: Spore suspension of Botrytis cinerea strain SAS 56 (3×10^5 spores/ml), commercially available from DSMZ collection.
• Treatment 1: Untreated check. • Treatment 2: Tablets loaded with pyrimethanil (sample V3.3, 2.1 wt.-%, prepared according to Example 4) (0.03 gr active/tablet). • Treatment 3: Unloaded hydromagnesite tablet. • Treatment 4: Fungicide Espiro (appl. rate 0.125% (v/v based on the total amount of prepared treatment solution (solution amount: 50 ml, see below), resulting in pyrimethanil active 400 gr/1). • Treatment 5: Pure pyrimethanil active diluted in ethanol of 99% purity.
• Treatment 1: Only inoculum applied • Treatment 2: In 50 ml of water 1 tablet was dissolved. […]
Three days after the inoculation the first symptoms in the untreated check were detected. […]

Q: Which “Botrytis spore germination / mycelium growth on tomato fruits” value does the source give for `Cc1cc(C)nc(Nc2ccccc2)n1` [Pyrimethanil] here?
A: no mycelium was produced
